According to patent US10124012B2, “Method for treatment of hyperglycemia and hyperlipidemia” (priority 2016, dated 2018):

Tests used:
[1] = system: membrane GLUT4; assay: Western blotting of skeletal muscular membrane GLUT4 in HFD-fed mice; type: in vivo, C57BL/6J mice; conditions: skeletal muscle, AnK 10, 20, 40, Feno 250, Metf 300 mg/kg/day, as compared with the HF group
From the text: (§1) The 4-week old male C57BL/6J mice (total amount n=63) were obtained from the National Laboratory Animal Center (Taipei, Taiwan). After acclimatization for one week, all of the mice were randomly assigned into a control (CON) group and a high-fat diet (HFD) group. […] After HFD feeding for 8 weeks, the HFD group was randomly subdivided into six groups (n=9 per group) receiving different treatments and fed on HFD. […] The HF+AnK1, HF+AnK2, and HF+AnK3 groups are collectively termed AnK-treated HFD groups in the following examples. The CON mice were administered vehicle. All treatments were administered via oral gavage once daily. After administration for 4 weeks, all mice were fasted 12 hours, and blood was collected from the retro-orbital sinus under ether anesthesia. At the end of the experiment, the mice were sacrificed via carbon dioxide inhalation. Liver, adipose tissue, and skeletal muscle were collected and immediately stored at −80° C. for target gene analysis.
About 0.1 g of liver tissue, skeletal muscle, or adipose tissue was used for the homogenate samples. Samples were powdered under liquid nitrogen and homogenized for 20 seconds in 500 μL buffer containing 20 mM Tris-HCl (pH 7.4 at 4° C.), 2% SDS, 5 mM EDTA, 5 mM EGTA, 1 mM dithiothreitol (DTT), 100 mM NaF, 2 mM sodium vanadate, 0.5 mM phenylmethylsulfonyl fluoride, 10 μg/mL leupeptin, and 10 μL/mL pepstatin. The total membrane fraction was used for measurement. The protein concentration in supernatant was determined with a BCA protein assay kit (Thermo Scientific, Rockford, Ill., USA). […] The membrane was blocked with 5% slim milk in Tris-buffered saline (TBS)(Amersham BioSciences, Uppsala, Sweden) containing 0.05% Tween-20 (Bio Rad, CA, USA) and incubated overnight at 4° C. with antibodies at 1:200 dilution. […] Immunoreactive bands were detected with ECL reagent kit (GE Healthcare BioSciences, Buckinghamshire, UK). The intensity of Western blot signals was analyzed using AlphaEase FC software (Alpha Innotech Corporation, Randburg, South Africa). […]

[2] = system: high-fat diet-fed C57BL/6J mouse; assay: Histopathology of liver (hepatocellular ballooning); type: in vivo, C57BL/6J mice; conditions: grade 0 absence, 1 few cells, 2 many cells (Table 4); HF + Feno: fenofibrate 250 mg/kg/day oral gavage 4 weeks, HFD-fed mice
Experimental: (§2) Animal studies were performed and approved under the guidelines of the Institutional Animal Care and Use Committee in Taiwan (12 Mar. 2015). The 4-week old male C57BL/6J mice (total amount n=63) were obtained from the National Laboratory Animal Center (Taipei, Taiwan). After acclimatization for one week, all of the mice were randomly assigned into a control (CON) group and a high-fat diet (HFD) group. For the following 12 weeks, the CON group (n=9) received a control diet or a low-fat diet (Diet 12450B, Research Diets, Inc., New Brunswick, N.J., USA), while the HFD group (n=54) received a high-fat diet (Diet 12451, Research Diets, New Brunswick, N.J., USA). The low-fat diet was composed of protein 20%, carbohydrate 70% and fat 10%, whereas the high-fat diet was composed of protein 20%, carbohydrate 35%, and fat 45% (of total energy, % kcal). After HFD feeding for 8 weeks, the HFD group was randomly subdivided into six groups (n=9 per group) receiving different treatments and fed on HFD. […] The HF+AnK1, HF+AnK2, and HF+AnK3 groups are collectively termed AnK-treated HFD groups in the following examples. The CON mice were administered vehicle. All treatments were administered via oral gavage once daily. After administration for 4 weeks, all mice were fasted 12 hours, and blood was collected from the retro-orbital sinus under ether anesthesia. At the end of the experiment, the mice were sacrificed via carbon dioxide inhalation. Liver, adipose tissue, and skeletal muscle were collected and immediately stored at −80° C. for target gene analysis.
(§3) Parts of visceral adipose and liver specimens were fixed with formalin (200 g/kg) neutral buffered solution and embedded in paraffin. A series of 8 μm-thick sections was cut and stained with hematoxylin and eosin. For microscopic examination, a microscope (Olympus BX51, Olympus, Tokyo, Japan) was used and the images were photographed.
On the basis of previous study, the degree of hepatocellular ballooning is defined in TABLE 4: […]

[3] = system: high-fat diet-fed C57BL/6J mouse; assay: Histopathology of epididymal white adipose tissue (adipocyte hypertrophy); type: in vivo, C57BL/6J mice; conditions: mean area of epididymal adipocyte; HF + Feno: fenofibrate 250 mg/kg/day oral gavage 4 weeks, HFD-fed mice
Experimental: as §2, §3
Adipocyte hypertrophy, the pathological enlargement of adipocytes, is often found in subjects with type 2 diabetes and hyperlipidemia. To verify the therapeutic effect of AnK on adipocyte hypertrophy, morphology of the epididymal white adipose tissue from mice of the HF group and the AnK-treated HFD groups was examined. Micrographs (magnification 200X) of the EWAT sections for each group were shown in FIG. 4 and analyzed to determine the mean area of an epididymal adipocyte.

[4] = system: high-fat diet-fed C57BL/6J mouse; assay: Hepatic lipids in HFD-fed mice; type: in vivo, C57BL/6J mice; conditions: HF + Feno: fenofibrate 250 mg/kg/day oral gavage 4 weeks
Experimental: as §2, with “The 4-week old male C57BL/6J mice (total amount n=63) were obtained from the National Laboratory Animal Center (Taipei, Taiwan).” left out, “The low-fat diet was composed of protein 20%, carbohydrate 70% and fat 10%, whereas the high-fat diet was composed of protein 20%, carbohydrate 35%, and fat 45% (of total energy, % kcal).” left out

[5] = system: high-fat diet-fed C57BL/6J mouse; assay: Body weight, tissue weights and food intake in HFD-fed mice; type: in vivo, C57BL/6J mice; conditions: HF + Feno: fenofibrate 250 mg/kg/day oral gavage 4 weeks
From the text: as §1
The metabolic parameters, including body weight, weight gain, and food intake, were performed as the following. Body weight was daily measured at the same time throughout the study. Body weight gain is considered as the weight difference between two consecutive days. The amount of pellet food was weighted, followed by weighting the amount of remaining food after 24 hours. The difference between the two weights is defined as daily food intake.

[6] = system: phospho-AMPK (Thr^172)/total-AMPK; assay: AMPK phosphorylation in C2C12 cells (Western blotting); type: cell-based; conditions: AnK 1, 5, 10 and 25 μg/mL 30 min, insulin 100 nM 25 min, vs CON group
Experimental: (§4) For the in vitro assay, C2C12 skeletal myoblasts (ATCC CRL-1772) were cultured at 37° C. in Dulbecco's modified Eagle's medium (DMEM; Gibco BRL) supplemented with 10% fetal bovine serum (FBS; Hyclone) and 100 U/ml penicillin and 100 μg/ml streptomycin (Gibco BRL), and split 1:4 using 0.05% trypsin at 80% confluency. Myoblasts were diluted and placed in a 9 cm dish. Cells were cultured to achieve 80-90% confluency and refreshed with […] (2% FBS/DMEM) every 24 hours for 5-7 days. The term “confluency” refers to the proportion of the surface of a culture dish that is covered by adherent cells growing in the dish. 100% confluency refers to complete coverage of the surface by the cells.
(§5) Differentiated C2C12 cells were serum-starved in DMEM/BSA at 37° C. for 2 hours prior to incubation with AnK (at 1, 5, 10, and 25 μg/mL) or vehicle (0.2% dimethyl sulfoxide (DMSO) in saline) for 30 min or with 100 nM insulin for 25 min.
(§6) The abovementioned C2C12 cells were then washed three times with phosphate buffered saline (PBS) and divided into two groups. […]
(§7) Protein concentrations were determined via BCA assay (Pierce). […]
(§8) SDS polyacrylamide gel electrophoresis (SDS-PAGE) and Western blotting. Proteins were detected with antibodies specific for GLUT4, Akt, phospho-Akt (Ser^473), AMPK, and phospho-AMPK (Thr^172).

[7] = system: membrane GLUT4; assay: Membrane GLUT4 expression in C2C12 cells (Western blotting); type: cell-based; conditions: AnK 1, 5, 10 and 25 μg/mL 30 min, insulin 100 nM 25 min, vs CON group
Experimental: as §4, §5
The C2C12 cells of the other group were homogenized in a homogenization buffer having a pH value of about 7.4 and containing 250 mM sucrose, 50 mM Tris, and 0.2 mM edetic acid (EDTA). […]
as §7, §8

[8] = system: phospho-Akt (Ser^473)/total-Akt; assay: Akt phosphorylation in C2C12 cells (Western blotting); type: cell-based; conditions: AnK 1, 5, 10 and 25 μg/mL 30 min, insulin 100 nM 25 min, vs CON group
Experimental: as §4, §5, §6, §7, §8

In the case of `CC(C)OC(=O)C(C)(C)Oc1ccc(C(=O)c2ccc(Cl)cc2)cc1` [Feno, fenofibrate, reference compound], the “increase of membrane GLUT4 levels” value [1] is reported as 1.98 fold, the “Hepatocellular ballooning Mean score” value [2] is reported as 0.5 ± 0.1 and the Adipocyte size [3] is reported as 6304.2 ± 316.9 μm^2. The “Liver lipids total lipid” value [4] was 64.9 ± 5.1 mg/g, the Liver lipids triacylglycerol [4] was 47.3 ± 4.6 µmol/g and the “Absolute tissue weight BAT” value [5] was 0.157 ± 0.013 g. The “Absolute tissue weight EWAT” value [5] was 0.603 ± 0.041 g, the “Absolute tissue weight Liver” value [5] was 1.700 ± 0.070 g and the “Absolute tissue weight MWAT” value [5] was 0.247 ± 0.025 g. The “Absolute tissue weight RWAT” value [5] was 0.181 ± 0.020 g, the “Absolute tissue weight Skeletal muscle” value [5] was 0.428 ± 0.026 g and the “Absolute tissue weight Spleen” value [5] was 0.084 ± 0.005 g. The Final body weight [5] was 27.55 ± 0.84 g, the Weight gain [5] was 0.57 ± 0.55 g and the “Absolute tissue weight Visceral fat” value ([5]; sum of EWAT and RWAT) was 0.784 ± 0.052 g.

insulin [reference compound] was tested, and the “expression ratio of phospho-AMPK (p-AMPK) to total-AMPK (t-AMPK)” value [6] was “higher”, the “protein expression of membrane GLUT4” value [7] was “enhanced” and the “expression ratio of phospho-Akt (p-Akt) to total-Akt (t-Akt)” value [8] was “higher”.
